In ChEMBL document CHEMBL1667770, “Stereoselective first total synthesis, confirmation of the absolute configuration and bioevaluation of botryolide-E” (2011):
Converted amounts (≈) assume the structure as drawn.

Legend:
Assay type in all cases: functional
[1] = test system: Staphylococcus epidermidis; assay: Antimicrobial activity against Staphylococcus epidermidis MTCC 437 after 24 hrs by broth dilution method; settings: MTCC 437, 24 h
[2] = test system: Bacillus subtilis; assay: Antimicrobial activity against Bacillus subtilis MTCC 441 after 24 hrs by broth dilution method; settings: MTCC 441, 24 h
[3] = test system: Staphylococcus aureus; assay: Antimicrobial activity against Staphylococcus aureus MTCC 96 after 24 hrs by broth dilution method; settings: MTCC 96, 24 h
[4] = test system: Pseudomonas aeruginosa; assay: Antimicrobial activity against Pseudomonas aeruginosa MTCC 741 after 24 hrs by broth dilution method; settings: MTCC 741, 24 h
[5] = test system: Klebsiella pneumoniae; assay: Antimicrobial activity against Klebsiella pneumoniae MTCC 39 after 24 hrs by broth dilution method; settings: MTCC 39, 24 h
[6] = test system: Escherichia coli; assay: Antimicrobial activity against Escherichia coli MTCC 443 after 24 hrs by broth dilution method; settings: MTCC 443, 24 h
[7] = test system: Rhizopus arrhizus; assay: Antimicrobial activity against Rhizopus oryzae MTCC 262 at 100 ug/ml after 24 to 96 hrs by agar cup method; settings: read-out: IZ
[8] = test system: Aspergillus niger; assay: Antimicrobial activity against Aspergillus niger MTCC 1344 at 100 ug/ml after 24 to 96 hrs by agar cup method; settings: read-out: IZ
[9] = test system: Saccharomyces cerevisiae; assay: Antimicrobial activity against Saccharomyces cerevisiae MTCC 171 at 100 ug/ml after 24 to 96 hrs by agar cup method; settings: read-out: IZ
[10] = test system: Candida albicans; assay: Antimicrobial activity against Candida albicans MTCC 227 at 100 ug/ml after 24 to 96 hrs by agar cup method; settings: read-out: IZ
[11] = test system: Rhizopus arrhizus; assay: Antimicrobial activity against Rhizopus oryzae MTCC 262 at 30 ug/ml after 24 to 96 hrs by agar cup method; settings: read-out: IZ
[12] = test system: Saccharomyces cerevisiae; assay: Antimicrobial activity against Saccharomyces cerevisiae MTCC 171 at 30 ug/ml after 24 to 96 hrs by agar cup method; settings: read-out: IZ
[13] = test system: Candida albicans; assay: Antimicrobial activity against Candida albicans MTCC 227 at 30 ug/ml after 24 to 96 hrs by agar cup method; settings: read-out: IZ
[14] = test system: Aspergillus niger; assay: Antimicrobial activity against Aspergillus niger MTCC 1344 at 30 ug/ml after 24 to 96 hrs by agar cup method; settings: read-out: IZ

| Compound | MIC [1] | MIC [2] | MIC [3] | MIC [4] | MIC [5] | MIC [6] | zone of inhibition at 100 µg/mL [7] | zone of inhibition at 100 µg/mL [8] | zone of inhibition at 100 µg/mL [9] | zone of inhibition at 100 µg/mL [10] | zone of inhibition at 30 µg/mL [11] | zone of inhibition at 30 µg/mL [12] | zone of inhibition at 30 µg/mL [13] | zone of inhibition at 30 µg/mL [14] |
| --- | --- | --- | --- | --- | --- | --- | --- | --- | --- | --- | --- | --- | --- | --- |
| O=C1CN(/N=C/c2ccc([N+](=O)[O-])o2)C(=O)N1 [NITROFURANTOIN] | 50 µg/mL (≈ 210 µM) | 100 µg/mL (≈ 420 µM) | 50 µg/mL (≈ 210 µM) | 100 µg/mL (≈ 420 µM) | 50 µg/mL (≈ 210 µM) | 25 µg/mL (≈ 105 µM) |  |  |  |  |  |  |  |  |
| CC(=O)O[C@H](C)C[C@H](O)[C@@H]1C=CC(=O)O1 [BOTRYOLIDE-E] | 50 µg/mL (≈ 233 µM) | 25 µg/mL (≈ 117 µM) | 6.25 µg/mL (≈ 29.2 µM) | 50 µg/mL (≈ 233 µM) | 50 µg/mL (≈ 233 µM) | 12.5 µg/mL (≈ 58.4 µM) | 14 mm | 10 mm | 8 mm | 12 mm |  |  |  |  |
| Clc1ccccc1C(c1ccccc1)(c1ccccc1)n1ccnc1 [CLOTRIMAZOLE] |  |  |  |  |  |  |  |  |  |  | 21 mm | 23 mm | 22 mm | 18 mm |

Second part, led by results:

| MIC [1] | MIC [2] | MIC [3] | MIC [4] | MIC [5] | MIC [6] | Compound | zone of inhibition at 100 µg/mL [7] | zone of inhibition at 100 µg/mL [8] | zone of inhibition at 100 µg/mL [9] | zone of inhibition at 100 µg/mL [10] | zone of inhibition at 30 µg/mL [11] | zone of inhibition at 30 µg/mL [12] | zone of inhibition at 30 µg/mL [13] | zone of inhibition at 30 µg/mL [14] |
| --- | --- | --- | --- | --- | --- | --- | --- | --- | --- | --- | --- | --- | --- | --- |
| 1.56 µg/mL (≈ 4.67 µM) | 1.56 µg/mL (≈ 4.67 µM) | 1.56 µg/mL (≈ 4.67 µM) |  |  |  | CC1(C)S[C@@H]2[C@H](NC(=O)Cc3ccccc3)C(=O)N2[C@H]1C(=O)O [PENICILLIN G] |  |  |  |  |  |  |  |  |
|  |  |  | 1.56 µg/mL (≈ 2.69 µM) | 1.56 µg/mL (≈ 2.69 µM) | 1.56 µg/mL (≈ 2.69 µM) | CN[C@@H]1[C@H](O[C@H]2[C@H](O[C@H]3[C@H](O)[C@@H](O)[C@H](N=C(N)N)[C@@H](O)[C@@H]3N=C(N)N)O[C@@H](C)[C@]2(O)C=O)O[C@@H](CO)[C@H](O)[C@H]1O [STREPTOMYCIN] |  |  |  |  |  |  |  |  |
